Results as given in patent publication US6936585B2, “Corticotropin releasing factor 2 receptor agonists” (priority 2002, dated 2005).
Where two headings read alike, the source gives them in different places. Ends that are not written are not given here. Peptide text beside a SMILES is read from it.

Key:
CRF2R = target: T1, CRF2R (Homo sapiens, UniProt Q13324); test: CRF2R agonist activation (EC50 / Emax), called comparative CRF binding; type: cell-based
T1 sequence (Q13324 1-411): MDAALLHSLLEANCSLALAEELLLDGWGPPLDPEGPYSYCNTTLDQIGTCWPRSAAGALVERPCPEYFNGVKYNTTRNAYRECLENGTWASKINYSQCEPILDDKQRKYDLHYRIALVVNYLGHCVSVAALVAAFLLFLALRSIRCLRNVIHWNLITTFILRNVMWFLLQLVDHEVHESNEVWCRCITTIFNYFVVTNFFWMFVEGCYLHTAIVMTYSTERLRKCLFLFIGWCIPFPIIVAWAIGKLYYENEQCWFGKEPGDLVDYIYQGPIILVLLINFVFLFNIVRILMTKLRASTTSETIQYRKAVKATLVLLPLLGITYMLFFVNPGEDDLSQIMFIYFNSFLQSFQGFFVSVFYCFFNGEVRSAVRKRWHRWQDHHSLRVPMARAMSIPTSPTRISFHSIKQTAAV
Description: The pharmacological activity and selectivity of the peptides of present invention can be determined using published test procedures. See, e.g, U.S. patent application Ser. No. 09/799,978 (now issued U.S. Pat. No. 6,670,140). Because CRF2R and CRF1R are homologous proteins, it is expected that a certain proportion of agonists for CRF2R will also function as agonists of CRF1R. As discussed above, activation of CRF1R induces activation of the HPA axis since increased corticosteroid production leads to skeletal muscle atrophy. In most cases in which an increase in muscle mass or function is desired, it is not desirable to activate the HPA axis.
Cell-based assays include the steps of contacting cells which express CRF1R or CRF2R with a peptide of the present invention or control and measuring activation of the CRFR by measuring the expression or activity of components of the CRFR signal transduction pathways.
For example, after contact with a peptide of the present invention, lysates of the cells can be prepared and assayed for induction of cAMP. cAMP is induced in response to Gαs activation. Because Gαs is activated by receptors other than CRFR and because a test peptide may be exerting its effect through CRFRs or by another mechanism, two control comparisons are relevant for determining whether the peptide increases levels of cAMP via activation of a CRFR. One control compares the cAMP level of cells contacted with the peptide and the cAMP level of cells contacted with a control compound (i.e., the vehicle in which the peptide is dissolved).
In one example, cAMP induction is measured with the use of DNA constructs containing the cAMP responsive element linked to any of a variety of reporter genes can be introduced into cells expressing CRFRs. Such reporter genes include, but are not limited to, chloramphenicol acetyltransferase (CAT), luciferase, glucuronide synthetase, growth hormone, fluorescent proteins (e.g., Green Fluorescent Protein), or alkaline phosphatase. Following exposure of the cells to the peptide, the level of reporter gene expression can be quantitated to determine the peptide's ability to increase cAMP levels and thus determine the peptide's ability to activate the CRFR.
In addition to using cells expressing full length CRFRs, cells can be engineered which express CRFRs containing the ligand binding domain of the receptor coupled to, or physically modified to contain, reporter elements or to interact with signaling proteins. For example, a wild type CRFR or CRFR fragment can be fused to a G-protein resulting in activation of the fused G-protein upon agonist binding to the CRFR portion of the fusion protein. […] In addition, alternative pathways for induction of the CRE reporter could be eliminated to reduce basal levels.

CRF1R = target: T2, CRF1R (Homo sapiens, UniProt P34998); test: CRF1R agonist activation (EC50 / Emax), called comparative CRF binding; type: cell-based
T2 sequence (P34998 24-415): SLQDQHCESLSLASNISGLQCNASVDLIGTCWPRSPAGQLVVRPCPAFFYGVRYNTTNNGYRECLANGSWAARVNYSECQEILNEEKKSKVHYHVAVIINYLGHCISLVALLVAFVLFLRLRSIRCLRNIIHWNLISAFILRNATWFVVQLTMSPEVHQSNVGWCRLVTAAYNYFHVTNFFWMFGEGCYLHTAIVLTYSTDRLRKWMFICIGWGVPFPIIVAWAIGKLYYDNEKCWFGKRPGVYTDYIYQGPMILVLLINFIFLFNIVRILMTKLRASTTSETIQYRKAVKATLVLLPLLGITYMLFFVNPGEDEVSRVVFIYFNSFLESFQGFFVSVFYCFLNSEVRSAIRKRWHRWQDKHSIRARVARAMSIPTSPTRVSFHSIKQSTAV
Method in brief: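 Agonism at each human CRF receptor subtype is inferred from increased cAMP relative to vehicle, using cells expressing that subtype and either lysate cAMP measurement or a cAMP response element reporter.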

In the case of `CC[C@H](C)[C@H](NC(=O)[C@H](CCC(N)=O)NC(=O)[C@H](C)NC(=O)[C@H](CCSC)NC(=O)[C@H](CC(C)C)NC(=O)[C@H](Cc1c[nH]cn1)NC(=O)[C@H](C)NC(=O)[C@H](CC(N)=O)NC(=O)[C@H](C)NC(=O)[C@H](C)NC(=O)[C@H](C)NC(=O)[C@H](CCC(N)=O)NC(=O)[C@H](C)NC(=O)[C@H](CCCNC(=N)N)NC(=O)[C@H](CC(C)C)NC(=O)[C@H](CC(N)=O)NC(=O)[C@H](CCCCN)NC(=O)[C@H](C)NC(=O)[C@H](CCCCN)NC(=O)[C@H](C)NC(=O)[C@@H](NC(=O)[C@H](CC(N)=O)NC(=O)[C@H](Cc1ccccc1)NC(=O)[C@H](CC(C)C)NC(=O)[C@H](CC(C)C)NC(=O)[C@H](CC(N)=O)NC(=O)[C@H](CCSC)NC(=O)[C@@H](NC(=O)[C@H](CC(N)=O)NC(=O)[C@@H](NC(=O)[C@@H]1CCCN1C(=O)[C@@H](NC(=O)[C@H](CC(=O)O)NC(=O)[C@H](CC(C)C)NC(=O)[C@H](CO)NC(=O)[C@H](CC(C)C)NC(=O)[C@@H](NC(=O)[C@H](Cc1ccccc1)NC(=O)[C@H](CCCCN)NC(=O)[C@@H](N)[C@@H](C)O)[C@@H](C)O)C(C)C)[C@@H](C)O)[C@@H](C)CC)[C@@H](C)CC)C(N)=O` [hUroIII, human urocortin III, reference compound] (H-TKFTLSLDVPTNIMNLLFNIAKAKNLRAQAAANAHLMAQI-NH2), the Emax (CRF2R; Emax, read-out: CRF2R (Emax %)) is reported as 60% and the Emax (CRF1R; Emax, read-out: CRF1R (Emax %)) is reported as 10.2%.

For “NDDPPISIDLPLILLRNMIEMARIENEREQAGLNAKYLAEV-NH2 [compound 269]”, the Emax (CRF2R; read-out: CRF2R Emax) was 77.3% and the Emax (CRF1R; read-out: CRF1R Emax) was 44.3%.

Molecule `CC[C@H](C)[C@H](NC(=O)[C@H](C)NC(=O)[C@H](CC(N)=O)NC(=O)[C@H](CCC(N)=O)NC(=O)[C@H](CCC(=O)O)NC(=O)[C@H](C)NC(=O)[C@H](CCCNC(=N)N)NC(=O)[C@H](CCC(=O)O)NC(=O)[C@H](CCCNC(=N)N)NC(=O)[C@H](CCC(N)=O)NC(=O)[C@H](CO)NC(=O)[C@H](CCC(N)=O)NC(=O)[C@@H](NC(=O)[C@H](CCCCN)NC(=O)[C@H](CCC(=O)O)NC(=O)[C@H](CC(C)C)NC(=O)[C@H](CCC(=O)O)NC(=O)[C@H](CC(C)C)NC(=O)[C@H](CC(C)C)NC(=O)[C@@H](NC(=O)[C@H](CCCNC(=N)N)NC(=O)[C@H](CC(C)C)NC(=O)[C@H](CC(C)C)NC(=O)[C@H](CCC(N)=O)NC(=O)[C@H](CC(C)C)NC(=O)[C@@H]1CCCN1C(=O)[C@H](CC(C)C)NC(=O)[C@H](CC(=O)O)NC(=O)[C@@H](NC(=O)[C@H](CO)NC(=O)[C@H](CC(C)C)NC(=O)[C@H](CO)NC(=O)[C@@H]1CCCN1C(=O)[C@H](CC(N)=O)NC(=O)[C@@H](N)CC(=O)O)[C@@H](C)CC)[C@@H](C)O)[C@@H](C)O)C(=O)N[C@H](C(=O)N[C@@H](Cc1ccccc1)C(=O)N[C@@H](C)C(=O)N[C@@H](CO)C(=O)N[C@H](C(N)=O)C(C)C)[C@@H](C)CC` [compound 342] (H-DNPSLSIDLPLQLLRTLLELEKTQSQRERAEQNAIIFASV-NH2; N-terminus assumed) has an Emax (CRF2R; read-out: CRF2R Emax) of 92.2% and an Emax (CRF1R; read-out: CRF1R Emax) of 19.6%.

For `CC[C@H](C)[C@H](NC(=O)[C@H](C)NC(=O)[C@H](CC(N)=O)NC(=O)[C@H](CCC(N)=O)NC(=O)[C@H](CCC(=O)O)NC(=O)[C@H](C)NC(=O)[C@H](CCCNC(=N)N)NC(=O)[C@H](CCC(=O)O)NC(=O)[C@H](CCCNC(=N)N)NC(=O)[C@H](CCC(N)=O)NC(=O)[C@H](CO)NC(=O)[C@H](CCC(N)=O)NC(=O)[C@@H](NC(=O)[C@H](CCCNC(=N)N)NC(=O)[C@H](C)NC(=O)[C@H](CC(C)C)NC(=O)[C@H](CCC(=O)O)NC(=O)[C@H](CC(C)C)NC(=O)[C@H](CC(C)C)NC(=O)[C@@H](NC(=O)[C@H](CCCNC(=N)N)NC(=O)[C@H](CC(C)C)NC(=O)[C@H](CC(C)C)NC(=O)[C@H](Cc1ccc(O)cc1)NC(=O)[C@H](CC(C)C)NC(=O)[C@@H]1CCCN1C(=O)[C@H](CC(C)C)NC(=O)[C@H](CC(=O)O)NC(=O)[C@@H](NC(=O)[C@H](CO)NC(=O)[C@H](CC(C)C)NC(=O)[C@H](CO)NC(=O)[C@@H]1CCCN1C(=O)[C@H](CC(N)=O)NC(=O)[C@@H](N)CC(=O)O)[C@@H](C)CC)[C@@H](C)O)[C@@H](C)O)C(=O)N[C@H](C(=O)N[C@@H](Cc1ccccc1)C(=O)N[C@@H](C)C(=O)N[C@@H](CO)C(=O)N[C@H](C(N)=O)C(C)C)[C@@H](C)CC` [compound 177] (H-DNPSLSIDLPLYLLRTLLELARTQSQRERAEQNAIIFASV-NH2; N-terminus assumed), the Emax (CRF2R; read-out: CRF2R Emax) was 97.7% and the Emax (CRF1R; read-out: CRF1R Emax) was 69.2%.

In the case of “SQEPPISLDLPTYLLREVLEMTKADQLAQQAHSNRKLLDIA-NH2 [compound 106]”, the Emax (CRF2R; read-out: CRF2R Emax) is reported as 6.1% and the Emax (CRF1R; read-out: CRF1R Emax) is reported as 4.8%.

`CC[C@H](C)[C@H](NC(=O)[C@H](C)NC(=O)[C@H](CC(N)=O)NC(=O)[C@H](CCC(N)=O)NC(=O)[C@H](CCC(=O)O)NC(=O)[C@H](C)NC(=O)[C@H](CCCNC(=N)N)NC(=O)[C@H](CCC(=O)O)NC(=O)[C@H](CCCNC(=N)N)NC(=O)[C@H](CCC(N)=O)NC(=O)[C@H](CO)NC(=O)[C@H](CCC(N)=O)NC(=O)[C@@H](NC(=O)[C@H](CCCNC(=N)N)NC(=O)[C@H](C)NC(=O)[C@H](CC(C)C)NC(=O)[C@H](CCC(=O)O)NC(=O)[C@H](CC(C)C)NC(=O)[C@H](CC(C)C)NC(=O)[C@@H](NC(=O)[C@H](CCCNC(=N)N)NC(=O)[C@H](CC(C)C)NC(=O)[C@H](CC(C)C)NC(=O)[C@H](CCC(N)=O)NC(=O)[C@H](CC(C)C)NC(=O)[C@@H]1CCCN1C(=O)[C@H](CC(C)C)NC(=O)[C@H](CC(=O)O)NC(=O)[C@@H](NC(=O)[C@H](CO)NC(=O)[C@H](CC(C)C)NC(=O)[C@H](CO)NC(=O)[C@@H]1CCCN1C(=O)[C@H](CC(N)=O)NC(=O)[C@@H](N)CC(=O)O)[C@@H](C)CC)[C@@H](C)O)[C@@H](C)O)C(=O)N[C@H](C(=O)N[C@@H](Cc1ccccc1)C(=O)N[C@@H](C)C(=O)N[C@@H](CO)C(=O)N[C@H](C(N)=O)C(C)C)[C@@H](C)CC` [compound 176] (H-DNPSLSIDLPLQLLRTLLELARTQSQRERAEQNAIIFASV-NH2; N-terminus assumed) was tested, and the Emax (CRF2R; read-out: CRF2R Emax) was 90.2% and the Emax (CRF1R; read-out: CRF1R Emax) was 26.9%.

With `CC[C@H](C)[C@H](N)C(=O)N[C@H](C(=O)N[C@@H](CC(C)C)C(=O)N[C@@H](CO)C(=O)N[C@@H](CC(C)C)C(=O)N[C@@H](CC(=O)O)C(=O)N[C@H](C(=O)N1CCC[C@H]1C(=O)N[C@H](C(=O)NCC(=O)N[C@@H](CC(C)C)C(=O)N[C@@H](CC(C)C)C(=O)N[C@@H](CCC(N)=O)C(=O)N[C@H](C(=O)N[C@@H](CC(C)C)C(=O)N[C@@H](CC(C)C)C(=O)N[C@@H](CCC(=O)O)C(=O)N[C@@H](CCC(N)=O)C(=O)N[C@H](C(=O)N[C@@H](CCCCN)C(=O)N[C@@H](C)C(=O)N[C@@H](CC(=O)O)C(=O)N[C@@H](C)C(=O)N[C@@H](C)C(=O)N[C@@H](CCCNC(=N)N)C(=O)N[C@@H](CCC(=O)O)C(=O)N[C@@H](CCC(N)=O)C(=O)N[C@@H](C)C(=O)N[C@H](C(=O)N[C@H](C(=O)N[C@@H](CC(N)=O)C(=O)N[C@@H](C)C(=O)N[C@@H](CCCNC(=N)N)C(=O)N[C@H](C(=O)N[C@@H](CC(C)C)C(=O)N[C@@H](C)C(=O)N[C@@H](CCCNC(=N)N)C(=O)N[C@H](C(N)=O)C(C)C)[C@@H](C)CC)[C@@H](C)O)[C@@H](C)O)[C@@H](C)O)[C@@H](C)CC)[C@@H](C)CC)C(C)C)C(C)C` [compound 108] (H-IVLSLDVPIGLLQILLEQTKADAAREQATTNARILARV-NH2; N-terminus assumed) the Emax (CRF2R; read-out: CRF2R Emax) was 97% and the Emax (CRF1R; read-out: CRF1R Emax) was 3%.
